Calls of active or inactive are those of the source. No cut-off for these calls is given here. Where only a bound is given, the exact number is not on record here.

Data on 15 compounds can be found in ChEMBL document CHEMBL6109101, “Synthesis and bioactivity of cyclic peptide GG-8-6 analogues as anti-hepatocellular carcinoma agents” (Eur J Med Chem, 2025).

What all share (type): functional, cell-based
The subject of assay [1] is HCCLM3. Kind of assay: Cytotoxicity against human HCCLM3 cells assessed as inhibition of cell proliferation incubated for 48 hrs by MTT assay. The note with it: HCCLM3, 48 h. (Tetrazolium dyes change colour on reduction, which living cells bring about.)
The test system of a further assay is Huh-7. Kind of assay: Cytotoxicity against human Huh-7 cells assessed as inhibition of cell proliferation incubated for 48 hrs by MTT assay. The note with it: Huh-7, 48 h.
A further assay has as its system HepG2. Kind of assay: Cytotoxicity against human HepG2 cells assessed as inhibition of cell proliferation incubated for 48 hrs by MTT assay. The note with it: HepG2, 48 h.
Assay [2] has as its system MHCC97H. Kind of assay: Cytotoxicity against human MHCC97H cells assessed as inhibition of cell proliferation incubated for 48 hrs by MTT assay.
In assay [3] the test system is MHCC97H. Kind of assay: Cytotoxicity against human MHCC97H cells assessed as cell viability up to 40 uM measured at 24 to 48 hrs by MTT assay. Particulars: time 24-48 hrs.
Assay [4] has as its system MHCC97H. Kind of assay: Cytotoxicity against human MHCC97H cells assessed as reduction in cell viability up to 40 uM measured at 48 hrs by MTT assay.
Assay [5] concerns MHCC97H. Kind of assay: Cytotoxicity against human MHCC97H cells assessed as cell viability incubated at 12 to 48 hrs hrs by MTT assay. The note with it: dose <= 40.0 µM, time 12-48 hrs.
Assay [6] concerns MHCC97H. Kind of assay: Cytotoxicity against human MHCC97H cells assessed as reduction in cell viability at 40 uM measured at 48 hrs by MTT assay.
The test system of assay [7] is MHCC97H. Kind of assay: Cytotoxicity against human MHCC97H cells assessed as cell viability up to 40 uM measured at 12 hrs by MTT assay.
The subject of assay [8] is HCCLM3. Kind of assay: Cytotoxicity against human HCCLM3 cells assessed as cell viability incubated at 12 to 48 hrs hrs by MTT assay. The note with it: dose <= 40.0 µM, time 12-48 hrs.
Assay [9] has as its system HCCLM3. Kind of assay: Cytotoxicity against human HCCLM3 cells assessed as reduction in cell viability at 40 uM measured after 48 hrs by MTT assay.
Assay [10] concerns HCCLM3. Kind of assay: Cytotoxicity against human HCCLM3 cells assessed as cell viability up to 40 uM by MTT assay. The note with it: time 12-48 hrs.
Assay [11] relates to HCCLM3. The assay can be described thus: Cytotoxicity against human HCCLM3 cells assessed as reduction in cell viability at 40 uM measured at 48 hrs by MTT assay.
Assay [12] concerns MHCC97H. The assay can be described thus: Cytotoxicity against human MHCC97H cells assessed as cell viability up to 40 uM by MTT assay. Particulars: time 12-48 hrs.
Assay [13] has as its system MHCC97H. The assay can be described thus: Cytotoxicity against human MHCC97H cells assessed as reduction in cell viability at 40 uM measured after 48 hrs by MTT assay.
For assay [14], the system named is HCCLM3. The assay can be described thus: Cytotoxicity against human HCCLM3 cells assessed as cell viability up to 40 uM measured at 12 hrs by MTT assay.
For assay [15], the system named is HCCLM3. Kind of assay: Cytotoxicity against human HCCLM3 cells assessed as reduction in cell viability up to 40 uM measured at 48 hrs by MTT assay.
Assay [16] deals with HCCLM3. The assay can be described thus: Cytotoxicity against human HCCLM3 cells assessed as cell viability up to 40 uM measured at 24 to 48 hrs by MTT assay. The note with it: time 24-48 hrs.

The term IC50 denotes the point on the concentration scale where inhibition reaches its midpoint. For the compound `CC(C)C[C@@H]1NC(=O)[C@H](CC(C)C)NC(=O)[C@@H](CCCCNC(=O)OC(C)(C)C)NC(=O)[C@@H]2CCCN2C(=O)[C@@H](CC(C)C)NC(=O)[C@H](COC(C)(C)C)NC(=O)[C@H](CC(C)C)NC(=O)[C@H](C(C)C)NC(=O)[C@H](CC(C)C)NC1=O`, the IC50 in the assay on HCCLM3 [1] was 10.2 µM; in the assay with Huh-7, more than 100 µM; in the assay with HepG2, more than 100 µM; in the assay on MHCC97H [2] it was 10.2 µM.

For the compound `CC[C@@H](C)[C@H]1NC(=O)[C@@H]2CCCN2C(=O)[C@@H](CC(C)C)NC(=O)CNC(=O)[C@H](CC(C)C)NC(=O)[C@H](C(C)C)NC(=O)[C@H](CC(C)C)NC(=O)[C@H](CC(C)C)NC(=O)[C@H](CC(C)C)NC1=O`, the IC50 in the assay on HCCLM3 [1], with Huh-7, in the assay on HepG2 and with MHCC97H [2] was more than 100 µM throughout.

Turning to `CC[C@@H](C)[C@H]1NC(=O)[C@@H]2CCCN2C(=O)[C@@H](CC(C)C)NC(=O)[C@@H](Cc2ccc(OC(C)(C)C)cc2)NC(=O)[C@H](CC(C)C)NC(=O)[C@H](C(C)C)NC(=O)[C@H](CC(C)C)NC(=O)[C@H](CC(C)C)NC(=O)[C@H](CC(C)C)NC1=O`, the IC50 in the assay on HCCLM3 [1], with Huh-7, in the assay with HepG2 and in the assay on MHCC97H [2] was more than 100 µM in each case.

On to `CC[C@@H](C)[C@H]1NC(=O)[C@@H]2CCCN2C(=O)[C@@H](CC(C)C)NC(=O)[C@@H](Cc2ccccc2)NC(=O)[C@H](CC(C)C)NC(=O)[C@H](C(C)C)NC(=O)[C@H](CC(C)C)NC(=O)[C@H](CC(C)C)NC(=O)[C@H](CC(C)C)NC1=O`, for which the IC50 in the assay on HCCLM3 [1], with Huh-7, in the assay on HepG2 and with MHCC97H [2] was more than 100 µM each time.

For the compound `CC[C@@H](C)[C@H]1NC(=O)[C@@H]2CCCN2C(=O)[C@@H](CC(C)C)NC(=O)[C@H](C(C)C)NC(=O)[C@@H](CC(C)C)NC(=O)[C@H](C(C)C)NC(=O)[C@H](CC(C)C)NC(=O)[C@H](CC(C)C)NC(=O)[C@H](CC(C)C)NC1=O`, the IC50 stood at 9.94 µM in the assay with HCCLM3 [1], 12.2 µM in the assay with Huh-7, 12.2 µM with HepG2 and 8.18 µM in the assay with MHCC97H [2].

With `CC(C)C[C@@H]1NC(=O)[C@H](CC(C)C)NC(=O)[C@@H](CCCCNC(=O)OC(C)(C)C)NC(=O)[C@@H]2CCCN2C(=O)[C@@H](CC(C)C)NC(=O)[C@H](C(C)C)NC(=O)[C@H](CC(C)C)NC(=O)[C@H](C(C)C)NC(=O)[C@H](CC(C)C)NC1=O`, the IC50 is 2.17 µM with HCCLM3 [1], more than 100 µM in the assay with Huh-7, more than 100 µM in the assay on HepG2 and 2.7 µM in the assay on MHCC97H [2].

Consider `CC[C@@H](C)[C@H]1NC(=O)[C@@H]2CCCN2C(=O)[C@@H](CC(C)C)NC(=O)[C@@H]([C@@H](C)OC(C)(C)C)NC(=O)[C@H](CC(C)C)NC(=O)[C@H](C(C)C)NC(=O)[C@H](CC(C)C)NC(=O)[C@H](CC(C)C)NC(=O)[C@H](CC(C)C)NC1=O`, for which the IC50 with HCCLM3 [1], in the assay on Huh-7, with HepG2 and with MHCC97H [2] was more than 100 µM in each case.

Take `CC[C@@H](C)[C@H]1NC(=O)[C@@H]2CCCN2C(=O)[C@@H](CC(C)C)NC(=O)[C@@H](COC(C)(C)C)NC(=O)[C@H](CC(C)C)NC(=O)[C@H](C(C)C)NC(=O)[C@H](CC(C)C)NC(=O)[C@H](CC(C)C)NC(=O)[C@H](CC(C)C)NC1=O`: the IC50 with HCCLM3 [1], in the assay on Huh-7, in the assay with HepG2 and in the assay with MHCC97H [2] was more than 100 µM throughout.

With `CC[C@@H](C)[C@H]1NC(=O)[C@@H]2CCCN2C(=O)[C@@H](CC(C)C)NC(=O)[C@H](COC(C)(C)C)NC(=O)[C@@H](CCCCNC(=O)OC(C)(C)C)NC(=O)[C@H](C(C)C)NC(=O)[C@H](CC(C)C)NC(=O)[C@H](CC(C)C)NC(=O)[C@H](CC(C)C)NC1=O`, the IC50 in the assay on HCCLM3 [1] was 2.99 µM; in the assay on Huh-7, more than 100 µM; in the assay on HepG2, more than 100 µM; in the assay with MHCC97H [2], 3.04 µM.

Turning to `CC[C@@H](C)[C@H]1NC(=O)[C@@H]2CCCN2C(=O)[C@@H](CC(C)C)NC(=O)[C@H](Cc2ccc(OC(C)(C)C)cc2)NC(=O)[C@@H](CC(C)C)NC(=O)[C@H](C(C)C)NC(=O)[C@H](CC(C)C)NC(=O)[C@H](CC(C)C)NC(=O)[C@H](CC(C)C)NC1=O`, the IC50 stood at 2.86 µM in the assay on HCCLM3 [1], 2.08 µM with Huh-7, 2.08 µM in the assay with HepG2 and 4.86 µM with MHCC97H [2].

Regarding `CC[C@@H](C)[C@H]1NC(=O)[C@@H]2CCCN2C(=O)[C@@H](CC(C)C)NC(=O)[C@H]([C@H](C)OC(C)(C)C)NC(=O)[C@@H](CC(C)C)NC(=O)[C@H](C(C)C)NC(=O)[C@H](CC(C)C)NC(=O)[C@H](CC(C)C)NC(=O)[C@H](CC(C)C)NC1=O`, the IC50 with HCCLM3 [1] was determined as 4.19 µM; with Huh-7, 3.41 µM; with HepG2 it was 3.41 µM; in the assay on MHCC97H [2], 6.05 µM.

`CC(C)C[C@@H]1NC(=O)[C@H](CC(C)C)NC(=O)[C@@H](CCCCNC(=O)OC(C)(C)C)NC(=O)[C@@H]2CCCN2C(=O)[C@@H](CC(C)C)NC(=O)[C@H](Cc2ccccc2)NC(=O)[C@H](CC(C)C)NC(=O)[C@H](C(C)C)NC(=O)[C@H](CC(C)C)NC1=O`: the IC50 in the assay with HCCLM3 [1] was 5.23 µM; in the assay with Huh-7, more than 100 µM; with HepG2, more than 100 µM; with MHCC97H [2], 3.64 µM.

Turning to `CC(C)C[C@@H]1NC(=O)[C@H](CC(C)C)NC(=O)[C@@H](CCCCNC(=O)OC(C)(C)C)NC(=O)[C@@H]2CCCN2C(=O)[C@@H](CC(C)C)NC(=O)[C@H](Cc2ccc(OC(C)(C)C)cc2)NC(=O)[C@H](CC(C)C)NC(=O)[C@H](C(C)C)NC(=O)[C@H](CC(C)C)NC1=O`, the outcome in the assay with MHCC97H [3], with MHCC97H [4], in the assay on MHCC97H [6], in the assay on MHCC97H [7], with HCCLM3 [9] and in the assay on HCCLM3 [11] was Active. In addition, the result in the assay on MHCC97H [13], with HCCLM3 [14], with HCCLM3 [15] and in the assay with HCCLM3 [16] was Active. For the same compound, the IC50 with HCCLM3 [1] is 3.26 µM; with Huh-7, more than 100 µM; in the assay on HepG2 it was more than 100 µM; in the assay with MHCC97H [2] it was 3.51 µM. In addition, the Activity entry in the assay on MHCC97H [5] was “Dose-dependent-effect”; with HCCLM3 [8] it was “Dose-dependent-effect”; with HCCLM3 [10] it was “Time-dependent-effect”; with MHCC97H [12] it was “Time-dependent-effect”.

As for `CC[C@@H](C)[C@H]1NC(=O)[C@@H]2CCCN2C(=O)[C@@H](CC(C)C)NC(=O)[C@@H]([C@@H](C)OC(C)(C)C)NC(=O)[C@@H](CCCCNC(=O)OC(C)(C)C)NC(=O)[C@H](C(C)C)NC(=O)[C@H](CC(C)C)NC(=O)[C@H](CC(C)C)NC(=O)[C@H](CC(C)C)NC1=O`, the result in the assay on MHCC97H [3], in the assay on MHCC97H [4], in the assay with MHCC97H [6], in the assay on MHCC97H [7], with HCCLM3 [9] and in the assay with HCCLM3 [11] was Active. Moreover, the result in the assay on MHCC97H [13], in the assay with HCCLM3 [14], in the assay with HCCLM3 [15] and with HCCLM3 [16] was Active. In addition, the IC50 in the assay on HCCLM3 [1] is 6.57 µM; in the assay with Huh-7, more than 100 µM; with HepG2, more than 100 µM; with MHCC97H [2] it was 9.19 µM. The Activity entry is “Dose-dependent-effect” in the assay with MHCC97H [5], “Dose-dependent-effect” in the assay with HCCLM3 [8], “Time-dependent-effect” in the assay with HCCLM3 [10] and “Time-dependent-effect” in the assay with MHCC97H [12].

For `CC[C@@H](C)[C@H]1NC(=O)[C@@H]2CCCN2C(=O)[C@@H](CC(C)C)NC(=O)[C@H](CCCCNC(=O)OC(C)(C)C)NC(=O)[C@@H](CC(C)C)NC(=O)[C@H](C(C)C)NC(=O)[C@H](CC(C)C)NC(=O)[C@H](CC(C)C)NC(=O)[C@H](CC(C)C)NC1=O`, the IC50 in the assay with HCCLM3 [1], with Huh-7, in the assay with HepG2 and in the assay on MHCC97H [2] was more than 100 µM in each case.
